Tests used:
[1] = target: Rho-associated protein kinase 2 (Homo sapiens, UniProt O75116); assay: Inhibition of ROCK2 after 1 hr by FRET-based enzyme-coupled assay
[2] = target: Rho-associated protein kinase 1 (Homo sapiens, UniProt Q13464); assay: Inhibition of human His-puritin-tagged ROCK1 expressed in Sf9 cells after 1 hr by FRET-based enzyme-coupled assay
Rho-associated protein kinase 1, sequence (Q13464 whole entry): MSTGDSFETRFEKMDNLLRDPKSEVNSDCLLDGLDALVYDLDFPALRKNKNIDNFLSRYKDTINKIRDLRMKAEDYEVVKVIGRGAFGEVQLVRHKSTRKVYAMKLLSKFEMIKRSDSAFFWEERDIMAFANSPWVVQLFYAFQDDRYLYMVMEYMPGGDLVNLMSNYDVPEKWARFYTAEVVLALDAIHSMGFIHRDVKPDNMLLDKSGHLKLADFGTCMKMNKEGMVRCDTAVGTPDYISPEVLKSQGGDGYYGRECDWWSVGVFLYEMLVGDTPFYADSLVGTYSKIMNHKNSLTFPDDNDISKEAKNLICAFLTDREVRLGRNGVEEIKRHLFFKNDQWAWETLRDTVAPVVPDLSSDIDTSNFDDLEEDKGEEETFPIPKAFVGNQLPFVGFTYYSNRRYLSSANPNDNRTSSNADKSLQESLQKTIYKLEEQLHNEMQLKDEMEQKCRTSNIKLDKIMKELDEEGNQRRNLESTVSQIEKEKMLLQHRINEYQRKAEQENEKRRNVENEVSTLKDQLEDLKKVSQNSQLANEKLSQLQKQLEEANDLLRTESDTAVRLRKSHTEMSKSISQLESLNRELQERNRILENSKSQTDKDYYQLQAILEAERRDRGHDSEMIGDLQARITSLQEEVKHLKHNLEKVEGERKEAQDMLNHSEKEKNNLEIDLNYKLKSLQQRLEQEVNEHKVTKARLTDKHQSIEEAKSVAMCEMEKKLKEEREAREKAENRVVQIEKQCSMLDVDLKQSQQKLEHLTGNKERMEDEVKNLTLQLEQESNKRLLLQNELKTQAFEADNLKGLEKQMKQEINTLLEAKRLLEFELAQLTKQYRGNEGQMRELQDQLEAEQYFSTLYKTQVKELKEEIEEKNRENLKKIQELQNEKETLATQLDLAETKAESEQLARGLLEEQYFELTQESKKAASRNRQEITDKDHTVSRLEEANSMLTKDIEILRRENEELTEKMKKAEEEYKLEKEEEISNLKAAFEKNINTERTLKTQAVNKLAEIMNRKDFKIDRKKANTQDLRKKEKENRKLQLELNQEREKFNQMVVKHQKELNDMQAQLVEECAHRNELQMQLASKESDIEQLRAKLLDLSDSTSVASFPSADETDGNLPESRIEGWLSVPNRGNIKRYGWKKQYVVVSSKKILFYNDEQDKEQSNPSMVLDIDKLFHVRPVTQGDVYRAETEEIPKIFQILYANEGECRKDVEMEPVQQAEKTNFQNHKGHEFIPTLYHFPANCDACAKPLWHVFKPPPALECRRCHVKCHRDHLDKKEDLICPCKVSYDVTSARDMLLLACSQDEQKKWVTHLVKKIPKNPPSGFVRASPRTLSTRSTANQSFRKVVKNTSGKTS

Rho-associated protein kinase 2, sequence (O75116 whole entry): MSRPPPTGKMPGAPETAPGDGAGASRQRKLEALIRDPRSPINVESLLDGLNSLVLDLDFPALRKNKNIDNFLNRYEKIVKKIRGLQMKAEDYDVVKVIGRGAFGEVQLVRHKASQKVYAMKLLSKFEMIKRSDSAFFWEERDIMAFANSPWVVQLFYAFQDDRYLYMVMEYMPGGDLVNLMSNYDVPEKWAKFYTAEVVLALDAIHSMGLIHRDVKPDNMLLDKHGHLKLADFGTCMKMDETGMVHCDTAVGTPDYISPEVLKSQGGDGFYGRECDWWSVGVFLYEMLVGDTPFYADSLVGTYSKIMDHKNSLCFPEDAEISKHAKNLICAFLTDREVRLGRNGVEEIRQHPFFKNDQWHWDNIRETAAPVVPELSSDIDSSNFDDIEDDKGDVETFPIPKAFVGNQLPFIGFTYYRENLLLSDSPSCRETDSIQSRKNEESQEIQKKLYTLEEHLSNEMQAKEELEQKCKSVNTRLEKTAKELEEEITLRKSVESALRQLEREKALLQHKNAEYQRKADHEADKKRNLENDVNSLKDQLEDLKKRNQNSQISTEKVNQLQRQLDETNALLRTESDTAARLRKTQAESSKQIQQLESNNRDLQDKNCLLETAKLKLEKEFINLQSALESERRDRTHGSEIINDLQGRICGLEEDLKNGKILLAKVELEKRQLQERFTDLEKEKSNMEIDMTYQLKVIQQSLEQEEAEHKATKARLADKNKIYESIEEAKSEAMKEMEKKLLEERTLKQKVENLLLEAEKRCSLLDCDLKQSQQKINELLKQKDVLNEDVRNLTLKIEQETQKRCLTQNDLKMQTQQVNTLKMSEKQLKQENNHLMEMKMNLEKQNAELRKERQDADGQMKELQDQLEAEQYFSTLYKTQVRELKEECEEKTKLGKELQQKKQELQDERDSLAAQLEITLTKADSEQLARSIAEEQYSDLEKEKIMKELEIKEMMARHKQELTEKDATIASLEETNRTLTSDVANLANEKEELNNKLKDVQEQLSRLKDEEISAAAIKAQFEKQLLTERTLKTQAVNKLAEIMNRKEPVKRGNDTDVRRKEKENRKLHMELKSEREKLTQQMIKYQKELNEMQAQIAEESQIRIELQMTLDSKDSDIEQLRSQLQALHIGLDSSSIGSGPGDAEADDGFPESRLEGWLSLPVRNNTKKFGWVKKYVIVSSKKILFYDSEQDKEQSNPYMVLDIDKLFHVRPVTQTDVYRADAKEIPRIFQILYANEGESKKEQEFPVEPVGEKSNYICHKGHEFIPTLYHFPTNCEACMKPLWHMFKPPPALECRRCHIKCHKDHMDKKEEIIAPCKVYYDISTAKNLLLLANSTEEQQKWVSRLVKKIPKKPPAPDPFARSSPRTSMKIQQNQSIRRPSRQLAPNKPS

IC50 [1]	IC50 [2]	SMILES
> 400 µM	> 400 µM	O=C(Nc1ccncc1)c1cnccc1-c1ccc(F)cc1
> 400 µM	> 400 µM	O=C(Nc1ccncc1)c1cncc(-c2ccc(F)cc2)c1
